Measurements: patent US8691982B2, “Pyrazolo[1,5-a]-1,3,5-triazine derivatives, preparation thereof, and therapeutic use thereof” (Centre National de la Recherche Scientifique, priority 2009, dated 2014)
pIC50: −log10 of the molar value. Structures can show the parent of a compound that is named as a salt.

Key:
CDK1/cyclin B = CDK1/cyclin B kinase assay; format: biochemical, starfish (Marthasterias glacialis); conditions: 15 μM ATP, 30° C., histone H1 substrate
Experimental: Homogenization buffers: 60 mM β-glycerophosphate, 15 mM p-nitrophenyl phosphate, 25 mM Mops (pH 7.2), 15 mM EGTA, 15 mM MgCl2, 1 mM DTT, 1 mM sodium vanadate, 1 mM NaF, 1 mM phenyl phosphate, 10 μg leupeptin/ml, 10 μg aprotinin/ml, 10 μg soybean trypsin inhibitor/ml and 100 μM benzamidine.
(§1) Buffer C: 60 mM β-glycerophosphate, 15 mM p-nitrophenyl phosphate, 25 mM Mops (pH 7.2), 5 mM EGTA, 15 mM MgCl2, 1 mM DTT, 1 mM sodium vanadate, 1 mM phenyl phosphate, 10 μg leupeptin/ml, 10 μg aprotinin/ml and 100 μM benzamidine.
(§2) Controls were performed with appropriate dilutions of dimethyl sulfoxide.
(§3) ATP (3000 Ci/mmol; 10 mCi/ml) in a final volume of 30 μl. After incubation for 30 minutes at 30° C., aliquotes of 25 μl of the supernatant were spotted onto Whatman P81 phosphocellulose paper filters and, 20 seconds later, the filters were washed five times (for at least five minutes each time) in a solution of 10 ml of phosphoric acid/liter of water. The wet filters were subjected to counting in the presence of an ACS scintillation fluid from Amersham. CDK2/cyclin A (human, recombinant, expressed in insect cells) was assayed as described for CDK1/cyclin B. CDK5/p25 was reconstituted by mixing equal amounts of recombinant mammalian CDK5 and p25 expressed in E. coli as a GST (glutathione-S-transferase) fusion protein and purified by affinity chromatography on glutathione-agarose (p25 is a truncated version of p35, the 35 kDa CDK5 activator). […] DYRK1A (human, recombinant, expressed in E. coli as a GST fusion protein) was purified on glutathione-agarose, assayed as described for CDK1/cyclin B with myelin basic protein (1 mg/ml) as substrate.

CDK2/cyclin A = target: T1, CDK2/cyclin A (Homo sapiens, UniProt P24941); test: CDK2/cyclin A kinase assay; format: biochemical; conditions: 15 μM ATP, 30° C., histone H1 substrate
T1 construct: host or cells: insect cells
Experimental: as §1, §2, §3

CDK5/p25 = CDK5/p25 (Homo sapiens, UniProt Q00535); test: CDK5/p25 kinase assay; format: biochemical, mammalian; conditions: 15 μM ATP, 30° C., histone H1 substrate
Experimental: as §1, §2, §3

CDK9/cyclin T = target: T2, CDK9/cyclin T (Homo sapiens, UniProt P50750); test: CDK9/cyclin T kinase assay; format: biochemical; conditions: 15 μM ATP, 30° C., pRB fragment substrate
T2 construct: host or cells: insect cells

GSK-3α/β = GSK-3α/β kinase assay; format: biochemical, pig; conditions: 15 μM ATP, 30° C., buffer A, GS-1 substrate
CK1δ/ε = CK1δ/ε kinase assay; format: biochemical, pig; conditions: 15 μM ATP, 30° C., CK1-specific peptide substrate
Experimental: (§4) The blank values were subtracted and the activities calculated as μmoles of phosphate incorporated per 10 minutes of incubation. […] Controls were performed with appropriate dilutions of dimethyl sulfoxide.
as §3

DYRK1A = DYRK1A (Homo sapiens, UniProt Q13627); test: DYRK1A kinase assay; format: biochemical; conditions: 15 μM ATP, 30° C., myelin basic protein substrate
Experimental: as §4, §3

[1] = tested on: SH-SY5Y human neuroblastoma cells; test: SH-SY5Y cell viability (MTS reduction); format: cell-based; conditions: SH-SY5Y cell line, cell viability by MTS
Experimental: A Cell Titer 96® kit containing the MTS reagent was purchased from Promega (Madison, Wis., USA). The protease inhibitor cocktail came from Roche and the fetal calf serum (FCS) came from Invitrogen. The reagents not listed came from Sigma, unless otherwise indicated.
The SH-SY5Y human neuroblastoma cell line was grown in a DMEM medium with L-glutamine from Invitrogen (Cergy Pontoise, France), antibiotics and 10% by volume of FCS from Invitrogen. The general culture conditions were a 5% CO2 atmosphere and a temperature of 37° C. The culture plates and other disposable plastic tools were supplied by Corning (Corning, N.Y., USA). The treatments with the compounds of the invention were carried out on cultures in exponential growth over time, and indicated concentrations. The control experiments were carried out also using suitable dilutions of DMSO.
The cell viability was determined by measuring the reduction of 3-(4,5-dimethylthiazol-2-yl)-5-(3-carboxymethoxyphenyl)-2-(4-sulfophenyl)-2H-tetrazolium (MTS).

[2] = tested on: Human chronic lymphoid leukemia (B-CLL) lymphocytes; test: B-CLL cell apoptosis (annexin V / propidium iodide, flow cytometry); format: cell-based; conditions: Homo sapiens, B-CLL cells from patients
Experimental: The CLL cells were isolated from heparinized blood of untreated patients after informed consent.
The mononuclear cells were isolated by centrifugation on a Lymphosep density gradient (Biowest). […] When the percentage of CD19+/CD5+ cells was less than 90%, the B lymphocytes were enriched using the kit II for B-cell enrichment by immunomagnetic depletion of the monocytes, NK cells, granulocytes and T lymphocytes (Miltenyi Biotech).
After incubation, the B-CLL cells were harvested, washed in PBS and resuspended in 100 μl of 1× binding buffer containing FITC-conjugated annexin V and propidium iodide (Beckman Coulter Apoptosis Detection Kit). After incubation for 10 min on ice, the cells were analyzed by flow cytometry and the percentage of cells undergoing apoptosis was determined.

Chain of CDK5/p25 (Q00535 whole entry, species assumed): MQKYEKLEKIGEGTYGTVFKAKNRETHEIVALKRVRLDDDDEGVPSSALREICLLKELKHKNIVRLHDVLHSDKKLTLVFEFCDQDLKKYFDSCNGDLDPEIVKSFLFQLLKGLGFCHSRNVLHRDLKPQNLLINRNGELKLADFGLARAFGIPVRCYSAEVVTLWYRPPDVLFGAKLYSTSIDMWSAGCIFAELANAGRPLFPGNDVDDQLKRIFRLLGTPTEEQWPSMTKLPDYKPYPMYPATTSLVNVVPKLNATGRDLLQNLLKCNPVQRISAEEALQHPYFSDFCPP
Chain of CDK5/p25 (Q15078 99-307 partner limits assumed, species assumed): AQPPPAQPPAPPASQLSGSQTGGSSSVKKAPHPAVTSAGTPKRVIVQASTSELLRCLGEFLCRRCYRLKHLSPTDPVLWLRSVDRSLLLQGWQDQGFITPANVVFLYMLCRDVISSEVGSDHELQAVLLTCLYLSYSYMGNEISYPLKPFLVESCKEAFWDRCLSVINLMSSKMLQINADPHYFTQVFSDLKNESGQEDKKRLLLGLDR
T2 sequence (P50750 whole entry, the tested form may be a part): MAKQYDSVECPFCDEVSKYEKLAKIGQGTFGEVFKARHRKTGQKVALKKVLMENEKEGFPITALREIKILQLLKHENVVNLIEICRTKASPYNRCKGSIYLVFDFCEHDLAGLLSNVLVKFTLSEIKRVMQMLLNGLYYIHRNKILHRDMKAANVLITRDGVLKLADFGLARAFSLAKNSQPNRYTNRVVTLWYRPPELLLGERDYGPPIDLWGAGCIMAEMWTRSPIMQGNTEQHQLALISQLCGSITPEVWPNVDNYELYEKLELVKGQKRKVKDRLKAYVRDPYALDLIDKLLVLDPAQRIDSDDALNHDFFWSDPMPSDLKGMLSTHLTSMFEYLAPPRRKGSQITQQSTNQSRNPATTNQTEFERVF
T2 sequence (O60563 whole entry partner, the tested form may be a part): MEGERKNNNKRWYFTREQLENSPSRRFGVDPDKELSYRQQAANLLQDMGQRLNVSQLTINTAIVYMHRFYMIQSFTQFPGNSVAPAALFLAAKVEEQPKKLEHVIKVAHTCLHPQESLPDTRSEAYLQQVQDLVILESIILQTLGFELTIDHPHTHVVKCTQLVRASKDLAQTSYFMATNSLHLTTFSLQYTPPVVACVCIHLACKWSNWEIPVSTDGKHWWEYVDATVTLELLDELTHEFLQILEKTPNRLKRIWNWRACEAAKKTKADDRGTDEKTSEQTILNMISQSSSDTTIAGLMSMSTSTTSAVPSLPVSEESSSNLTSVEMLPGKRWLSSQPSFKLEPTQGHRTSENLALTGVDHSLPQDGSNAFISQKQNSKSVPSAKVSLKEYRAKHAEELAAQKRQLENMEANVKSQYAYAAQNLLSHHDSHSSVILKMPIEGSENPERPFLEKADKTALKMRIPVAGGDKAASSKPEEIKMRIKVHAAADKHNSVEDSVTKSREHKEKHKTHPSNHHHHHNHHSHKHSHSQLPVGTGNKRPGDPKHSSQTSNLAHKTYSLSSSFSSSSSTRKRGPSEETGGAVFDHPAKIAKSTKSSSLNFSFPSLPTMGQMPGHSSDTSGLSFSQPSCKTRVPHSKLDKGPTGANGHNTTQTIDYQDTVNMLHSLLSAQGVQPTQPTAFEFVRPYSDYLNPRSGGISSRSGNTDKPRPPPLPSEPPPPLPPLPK

Compound | pIC50 (CDK1/cyclin B) | pIC50 (CDK2/cyclin A) | pIC50 (CDK5/p25) | pIC50 (CDK9/cyclin T) | pIC50 (GSK-3α/β) | pIC50 (CK1δ/ε) | pIC50 (DYRK1A) | pIC50 [1] | pIC50 ([1]; Homo sapiens) | pIC50 [2]
CC(C)c1cnn2c(NCc3ccc(-c4ccccn4)cc3)nc(N[C@H](CO)[C@@H](C)O)nc12 (stereo in doubt) [Compound 12, (2R,3R)-2-(1,3-dihydroxybut-2-ylamino)-8-isopropyl-4-[4-(pyridin-2-yl)benzylamino]pyrazolo[1,5-a]-1,3,5-triazine] | 7.54 | 7.66 | 7.54 | 7.22 | 5.52 | 6.70 | 6.33 |  |  | 
CC(C)c1cnn2c(NCc3ccc(-c4ccccn4)cc3)nc(N[C@@H](CO)[C@H](C)O)nc12 (stereo in doubt) [Compound 14, (2S,3S)-2-(1,3-dihydroxybut-2-ylamino)-8-isopropyl-4-[4-(pyridin-2-yl)benzylamino]pyrazolo[1,5-a]-1,3,5-triazine] | 7.38 | 7.38 | 7.36 | 7.28 | 5.60 | 6.92 | 6.24 |  |  | 
CC(C)c1cnn2c(NCc3ccc(-c4ccsc4)cc3)nc(N[C@H](CO)[C@@H](C)O)nc12 (stereo in doubt) [Compound 16, (2R,3R)-2-(1,3-dihydroxybut-2-ylamino)-8-isopropyl-4-[4-(thiophen-3-yl)benzylamino]pyrazolo[1,5-a]-1,3,5-triazine] | 7.23 | 7.47 | 7.30 | 7.04 | 5.38 | 6.72 | 5.74 |  |  | 
CC[C@@H](CO)Nc1nc(NCc2ccc(-c3ccccn3)cc2)n2ncc(C(C)C)c2n1 [Compound 5, Fumarate salt of (S)-2-(1-hydroxybut-2-ylamino)-8-isopropyl-4-[4-(pyridin-2-yl)benzylamino]pyrazolo[1,5-a]-1,3,5-triazine] | 7.64 | 7.80 | 7.51 | 7.52 | 5.46 | 6.68 | 6.30 | 7.10 |  | 
CC(C)c1cnn2c(NCc3ccc(-c4ccccn4)cc3)nc(NC[C@H](O)CO)nc12 [Compound 9, Fumarate salt of (S)-2-(1,2-dihydroxypropan-3-ylamino)-8-isopropyl-4-[4-(pyridin-2-yl)benzylamino]pyrazolo[1,5-a]-1,3,5-triazine] | 7.72 | 7.92 | 7.85 | 7.42 | 5.74 | 7.21 | 6.59 |  |  | 
CC(C)c1cnn2c(NCc3ccc(-c4ccccn4)cc3)nc(N[C@H](CO)[C@@H](C)O)nc12 [Compound 13, Fumarate salt of (2R,3R)-2-(1,3-dihydroxybut-2-ylamino)-8-isopropyl-4-[4-(pyridin-2-yl)benzylamino]pyrazolo[1,5-a]-1,3,5-triazine] | 7.51 | 7.70 | 7.68 | 7.31 | 5.64 | 6.74 | 6.52 |  |  | 
CC(C)c1cnn2c(NCc3ccc(-c4ccccn4)cc3)nc(N[C@@H](CO)[C@H](C)O)nc12 [Compound 15, Fumarate salt of (2S,3S)-2-(1,3-dihydroxybut-2-ylamino)-8-isopropyl-4-[4-(pyridin-2-yl)benzylamino]pyrazolo[1,5-a]-1,3,5-triazine] | 7.38 | 7.51 | 7.35 | 7.22 | 5.66 | 6.92 | 6.28 |  |  | 
CC(C)c1cnn2c(NCc3ccc(-c4ccccn4)cc3)nc(NC(CO)CO)nc12 [Compound 17, 2-(1,3-dihydroxyprop-2-ylamino)-8-isopropyl-4-[4-(pyridin-2-yl)benzylamino]pyrazolo[1,5-a]-1,3,5-triazine] | 7.15 | 7.21 | 7.28 | 7.17 | 5.36 | 7.04 | 6.04 |  |  | 
CC(C)c1cnn2c(NCc3ccc(-c4ccccn4)cc3)nc(NC(CO)CO)nc12 [Compound 18, Fumarate salt of 2-(1,3-dihydroxyprop-2-ylamino)-8-isopropyl-4-[4-(pyridin-2-yl)benzylamino]pyrazolo[1,5-a]-1,3,5-triazine] | 7.29 | 7.31 | 7.19 | 7.21 | 5.55 | 6.92 | 6.21 |  |  | 
CC(C)c1cnn2c(NCc3ccc(-c4ccccc4)nc3)nc(N[C@@H](CO)[C@H](C)O)nc12 [Compound 21] |  |  | 7.37 |  | 5.92 | 6.96 | 5.92 |  |  | 
CC(C)c1cnn2c(NCc3ccc(-c4ccccc4)nc3)nc(N[C@H](CO)[C@@H](C)O)nc12 [Compound 23] |  |  | > 7.52 |  | 5.92 | 6.89 | 5.89 |  |  | 
CC(C)c1cnn2c(NCc3ccc(-c4ccccn4)cc3)nc(N[C@H](CO)C(C)C)nc12 [Compound 28, (S)-2-(1-hydroxy-3-methylbut-2-ylamino)-8-isopropyl-4-[4-(pyridin-2-yl)benzylamino]pyrazolo[1,5-a]-1,3,5-triazine] |  |  | 6.92 |  | 5.15 | 6.39 | 6.24 |  |  | 
CC(C)c1cnn2c(NCc3ccc(-c4ccccn4)cc3)nc(N3CCN(CCO)CC3)nc12 [Compound 30, 2-[4-[8-isopropyl-4-[[4-(pyridin-2-yl)phenyl]methylamino]pyrazolo[1,5-a]-1,3,5-triazin-2-yl]piperazin-1-yl]ethanol] |  |  | 6.42 |  | 5.68 | 6.25 | 5.85 |  | 5.85 | 
CCc1cnn2c(NCc3ccc(-c4ccccn4)cc3)nc(NC[C@@H](O)CO)nc12 [Compound 31, (R)-2-(1,2-dihydroxypropan-3-ylamino)-8-ethyl-4-[4-(pyridin-2-yl)benzylamino]pyrazolo[1,5-a]-1,3,5-triazine] |  |  | 7.60 |  | 6.00 | 6.44 | 6.15 |  | > 7.52 | 
CCc1cnn2c(NCc3ccc(-c4ccccn4)cc3)nc(N[C@@H](CC)CO)nc12 [Compound 35, (S)-8-ethyl-2-(1-hydroxybut-2-ylamino)-4-[4-(pyridin-2-yl)benzylamino]pyrazolo[1,5-a]-1,3,5-triazine] |  |  | 7.47 |  | 5.85 | 6.03 | 6.09 |  | 7.30 | 
CCc1cnn2c(NCc3ccc(-c4ccccn4)cc3)nc(N[C@H](CC)CO)nc12 [Compound 36, (R)-8-ethyl-2-(1-hydroxybut-2-ylamino)-4-[4-(pyridin-2-yl)benzylamino]pyrazolo[1,5-a]-1,3,5-triazine] |  |  | 7.66 |  | 5.80 | 6.24 | 5.80 |  | 7.59 | 
CC[C@H](CO)Nc1nc(NCc2ccccc2)n2ncc(C(C)C)c2n1 [N-&-N1, reference compound] | 7.05 |  |  |  | 4.96 | 5.92 | 5.89 |  | 5.59 | 5.85
